The values that follow are results of earlier work, collected in US20200147118A1, “COMPOSITIONS AND METHODS FOR DETECTION, RISK ASSESSMENT AND TREATMENT OF DIABETES, OBESITY, AND INFLAMMATION” (OTTAWA HEART INSTITUTE RESEARCH CORPORATION, priority 2018, published 2020).

The data set relates to iNKTs. Particulars: obese mice, WT vehicle vs WT αGalCer, dataset GSE36032.

With `CCCCCCCCCCCCCCCCCCCCCCCCCC(=O)N[C@@H](CO[C@H]1O[C@H](CO)[C@H](O)[C@H](O)[C@H]1O)[C@H](O)[C@H](O)CCCCCCCCCCCCCC` [αGalCer], the “E4bp4 expression in adipose tissue” value is “increases” and the “Ripk1 expression in adipose tissue” value was “reduces”.
